Measurements taken from patent publication US20080171710A1, “The Redox/Fyn/c-Cbl Pathway” (priority 2007, published 2008).
Where two headings read alike, the source gives them in different places.

Assays:
[1] = test system: Erk1/2; type: cell-based, rat; conditions: for PDGF-induced Erk1/2 phosphorylation after toxicant exposure: 30 nM MeHg 24 h, 1 μM Pb, 5 μM paraquat
Description: Cells were deprived of PDGF-AA for 5 h before re-exposure to PDGF-AA (10 ng/ml) for 1 h for Western blot or 6 h for luciferase assays of pathway activation. Transient transfection was performed using Fugene6 (Roche, Basel, Switzerland ) transfection solution according to the manufacturer's protocol. For the luciferase assay, cells seeded in 12-well plates were transfected with a reporter plasmid SRE-Luc(firefly) or NF-κB-Luc(firefly) (BD-Clontech, Palo Alto, Calif., United States) and an internal control plasmid pRLSV40-LUC. Analyses of luciferase activity were performed according to the protocol of the Dual Luciferase Assay System (Promega, Madison, Wis., United States), which uses an internal control of Renilla luciferase for quantification, and relative light units were measured using a luminometer.
(§1) Anti-phosphorylated Erk monoclonal, anti-Erk monoclonal, anti-TrkC polyclonal anti-Fyn polyclonal, anti-EGFR polyclonal, anti-c-Met polyclonal, anti-phospho-tyrosine monoclonal, and anti-PDGFRα polyclonal antibodies were obtained from Santa Cruz Biotechnology (Santa Cruz, Calif., United States). Anti-c-Cbl monoclonal antibody was obtained from BD PharMingen (San Diego, Calif., United States). Anti-phosphorylated Akt monoclonal and anti-Akt polyclonal antibodies were obtained from Cell Signaling Technology (Beverly, Mass., United States). Anti-phosphorylated PDGPRα polyclonal antibody was obtained from Biosource (Carlsbad, Calif., United States). The cell culture samples were collected and lysed in RAPI buffer, whereas dissected tissue samples were sonicated in RAPI buffer. Samples were resolved on SDS-PAGE gels and transferred to PVDF membranes (PerkinElmer Life Science. Wellesley, Mass., United States), After being blocked in 5% skim milk in PBS containing 0.1% Tween 20, membranes were incubated with a primary antibody, followed by incubation with an HRP-conjugated secondary antibody (Santa Cruz Biotechnology). Membranes were visualized using Western Blotting Luminol Reagent (Santa Cruz Biotechnology). All analyses of signaling pathway components were conducted in the presence of ligand for the receptor pathway under analysis (either PDGF-AA for PDGFRα, NT-3 or TrkC, HGF for c-Met, or EGF for EGFR).

[2] = test system: PDGFRα; test: PDGFRα phosphorylation (Western blot, anti-PDGFRα(pY742)); type: cell-based, rat; conditions: for phosphorylation of PDGFRα after toxicant exposure: 30 nM MeHg, 1 μM Pb, 5 μM paraquat
From the text: The cells were then collected and lysed for Western blotting. […] Cells were lysed for Western blot analysis using anti-PDGFRα(pY742) antibody. The membranes were de-probed and then re-probed with antibody against total PDGFRα and anti-β-tubulin antibody. […]
as §1

[3] = test system: PDGFRα; type: cell-based, rat; conditions: for total levels of PDGFRα after toxicant exposure: MeHg 30 nM, 1 μM Pb, 5 μM paraquat
[4] = target: T1, Fyn (Rattus norvegicus, UniProt Q62844); type: cell-based; conditions: for Fyn activation after toxicant exposure: 30 nM MeHg, 1 μM Pb, 5 μM paraquat
T1 construct: 250 μg of total cell lysates were immunoprecipitated with anti-Fyn antibody; endogenous in cells; host or cells: primary rat O-2A/OPCs
T1 sequence (Q62844 whole entry): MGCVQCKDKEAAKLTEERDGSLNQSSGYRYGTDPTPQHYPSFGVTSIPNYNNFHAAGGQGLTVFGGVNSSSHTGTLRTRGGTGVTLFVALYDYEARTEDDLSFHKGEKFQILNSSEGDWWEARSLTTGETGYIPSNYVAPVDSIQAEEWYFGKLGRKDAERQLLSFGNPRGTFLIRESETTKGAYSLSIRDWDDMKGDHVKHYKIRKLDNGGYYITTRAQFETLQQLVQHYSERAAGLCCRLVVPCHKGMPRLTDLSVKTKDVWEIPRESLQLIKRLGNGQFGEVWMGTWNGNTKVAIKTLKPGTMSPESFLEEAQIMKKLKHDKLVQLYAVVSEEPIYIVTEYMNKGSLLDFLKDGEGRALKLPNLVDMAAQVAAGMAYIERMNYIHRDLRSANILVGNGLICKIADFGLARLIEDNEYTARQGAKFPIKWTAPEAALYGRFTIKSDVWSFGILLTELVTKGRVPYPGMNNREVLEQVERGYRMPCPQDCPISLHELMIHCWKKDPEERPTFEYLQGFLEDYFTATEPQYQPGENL
Description: Fyn kinase activity was quantified using the Universal Tyrosine Kinase Assay Kit (Takara, Madison, Wis., United States). O-2A/OPCs exposed to different treatments were solubilized with an equal volume of the extraction buffer provided with the kit for 15 min, and the resulting lysates were centrifuged at 13,000×g for 15 min at 4° C.; 250 μg of total cell lysates were immunoprecipitated with anti-Fyn antibody (Santa Cruz Biotechnology). Following immunoprecipitation, Fyn immune complexes were washed four times with extraction buffer, and then Fyn kinase activities of each sample were assayed using the kit according to the manufacturer's instructions.

[5] = test system: c-Cbl; type: cell-based, rat; conditions: for c-Cbl phosphorylation after toxicant exposure: 30 nM MeHg, 1 μM Pb, 5 μM paraquat
Description: (§2) For the co-immunoprecipitation assay, anti-c-Cbl monoclonal antibody (BD PharMingen) or anti-PDGFRα polyclonal antibody (Santa Cruz Biotechnology) was added to the pre-cleared cell lysates (250 μg of total protein), and the mixtures were gently rocked for 2 h at 4° C. A total of 30 μl of protein A/G agarose was then added to the mixture followed by rotating at 4° C. overnight. The protein A/G agarose was then spun down and washed thoroughly three times. The precipitates were resolved on an 8% SDS-PAGE gel and then were subjected to Western blot analysis using an anti-p-Tyr (for c-Cbl phosphorylation assay) or ubiquitin (for PDGFR ubiquitylation assay) antibody (Santa Cruz Biotechnology).

[6] = test system: PDGFRα; test: PDGFR ubiquitylation (immunoprecipitation assay); type: cell-based, rat; conditions: co-exposure with MeHg
Description: as §2

[7] = test system: O-2A/OPCs; test: Intracellular ROS / redox state measurement; type: cell-based, rat; conditions: 1 μM Pb or 5 μM paraquat; dyes dihydro-chloromethyl-rosamine or dihydro-calcein-AM
Description: Cells were plated in 96-well microplates and grown to about 60% continence. […] Cells were then washed once with HBSS and growth medium to remove free probe. Then, fresh growth medium was added and a baseline fluorescence reading was taken prior to treatment. For NAC pre-treatment. […] Fluorescence was measured in a Wallac 1420 Victor2 multilabel counter (PerkinElmer) using excitation and emission wavelengths of 485 nm and 535 nm, respectively, at different time courses as indicated in the figures. Results are presented as the value change from baseline by the formula (Ftexp−Ftbase)/Ftbase normalized with the control group, where Ftexp=fluorescence at any given time during the experiment in a give well and Ftbase=baseline fluorescence of the same well.

[8] = test system: EGFR; type: cell-based, rat; conditions: for levels of EGFR after toxicant exposure: MeHg, Pb or paraquat
From the text: as §1

[9] = test system: TrkC; type: cell-based, rat; conditions: for levels of TrkC after toxicant exposure: MeHg, Pb or paraquat
From the text: as §1

[10] = test system: c-Met; type: cell-based, rat; conditions: for levels of c-Met after toxicant exposure: MeHg, Pb or paraquat
From the text: as §1

[11] = test system: O-2A/OPCs; test: Cell death of O-2A/OPCs on exposure; type: cell-based, rat; conditions: for cell death at the concentrations used: MeHg at lower concentrations (not above 50 nM), 1 μM Pb, 5 μM paraquat
Description: To generate sufficient numbers of cells for biochemical analysis, cells, were expanded through one to two passages in PDGF+FGF-2 before replating in the presence of PDGF alone. When cells achieved approximately 50% confluence, MeHg, Pb, or paraquat was added to their medium at concentrations indicated. Doses for the toxicants were chosen on the basis of dose-response curves to identify sub-lethal exposure levels, as a reflection of blood and brain toxicant levels of these compounds and, where applicable, on the basis of previous reports. All toxicant concentrations examined were confirmed to cause death of less than 5% of cells over the time course of the experiment.

[12] = test system: O-2A/OPCs; test: In vitro BrdU incorporation assay; type: cell-based, rat; conditions: TMX 10 nM, 100 nM and 1 μM, 2 days
Description: Cell proliferation was assessed by bromodeoxyuridine (BrdU) incorporation and by using the mouse anti-BrdU mAb IgGl (1:100; Sigma) to label dividing cells. Stained cells on cover slips were rinsed two times in 1×PBS, counterstained with 4′6-diamidino-2-phenylindole (DAPI; Molecular Probes, Eugene, Oreg., United States) and mounted on glass slides with Fluoromount (Molecular Probes). Staining against surface proteins was performed on cultures of living cells or on cells fixed with 2% paraformaldehyde. Staining with intracellular antibodies was performed by permeabilizing cells with ice-cold methanol for 4 min or by using 0.5% Triton for 15 mm on 2% parafomaldhyde-fixed cells. Antibody binding was detected with appropriate fluorescent dye-conjugated secondary antibodies at 10 μg/ml (Southern Biotech, Birmingham, Ala., United States) or Alexa Fluor-coupled antibodies at a concentration of 1 μg/ml (Molecular Probes), applied for 20 min. Anti-BrdU monoclonal antibody was obtained from Sigma.

[13] = test system: MDA-MB-231 cell; test: MDA-MB-231 cell division by BrdU incorporation; type: cell-based; conditions: 20 μM tamoxifen, 48 hours
Description: It has been reported that c-Cbl induced down-regulation of EGFR is disabled in cancer cells (Hirsch DS, Shen. Y, Wu WJ, (2006) Cancer Res. Apr 1;66(7):3523-30). Thus, growth and motility inhibition of breast cancer cells by EGFR degradation is correlated with inaetivation of Cdc42. […] Cells were cultured in phenol red-free growth media and exposed to TMX (0, 1 μM, 10 μM, 20 μM and 50 μM) for 48 hours, with or without 1 mM NAC. In FIG. 22C. MDA-MB-231 cell division was analyzed by BrdU incorporation analysis. […] Percentage of Brdu+ cells from DAPI+ cells was determined in each sample.

[14] = test system: Fyn; type: cell-based, rat; conditions: exposure to Aβ (5-20 μM)

## Cl.N [NH4Cl, ammonium chloride]
[1]; co-exposure with Aβ(1-42)
  effect on Aβ(1-42) suppression of PDGF-mediated Erk1/2 phosphorylation: not
[1]; co-treatment with MeHg
  effect on MeHg-associated suppression of Erk1/2 phosphorylation: blocked
[2]; co-exposure with MeHg
  effect on MeHg-induced suppression of PDGFRα phosphorylation: protected
[3]; co-exposure with Aβ
  effect on Aβ-induced reduction in PDGFRα levels: blocked
[3]; together with MeHg
  effect on MeHg-induced reductions in levels of PDGFRα: blocked
[4]; added 1 h before MeHg
  effect on MeHg-induced Fyn activation: lack of effect
[5]; added 1 h before MeHg
  effect on MeHg-induced c-Cbl phosphorylation: lack of effect
[5]; co-exposure with Aβ
  effect on Aβ-induced increase in phosphorylated c-Cbl: not blocked
[6]
  levels of ubiquitylated PDGFRα in MeHg-treated cells: increased levels of ubiquityiated receptor

## C[n+]1ccc(-c2cc[n+](C)cc2)cc1 [paraquat]
[7]
  cells more oxidized (intracellular redox state): approximately 20%
[1]
  PDGF-induced Erk1/2 phosphorylation after toxicant exposure: reduced levels of Erk1/2 phosphorylation
[2]
  phosphorylation of PDGFRα after toxicant exposure: reduced
[3]
  total levels of PDGFRα after toxicant exposure: reduced
[8]
  levels of EGFR after toxicant exposure: also reduced
[9]
  levels of TrkC after toxicant exposure: neither Pb or paraquat caused a reduction
[10]
  levels of c-Met after toxicant exposure: also reduced
[4]
  Fyn activation after toxicant exposure: activation of Fyn
[5]
  c-Cbl phosphorylation after toxicant exposure: increased phosphorylation of c-Cbl
[11]
  cell death at the concentrations used: did not cause cell death

## CC/C(=C(\c1ccccc1)c1ccc(OCCN(C)C)cc1)c1ccccc1 [tamoxifen]
[12]
  O-2A/OPC division: Suppression
[2]; TMX exposure 4, 12, 24 hours
  levels of phosphorylated PDGFRα: parallel reduction over time
[3]; tamoxifen (100 nM; time course 4, 12, 24 hours)
  levels of PDGFRα: causes reductions
[3]; tamoxifen (100 nM; time course 4, 12, 24 hours), listed as TMX
  levels of PDGFRα: parallel reduction over time
[8]; TMX exposure
  levels of EGFR: decreased
[9]; TMX treatment
  levels of Trk (non-c-Cbl target): no differences
[10]; TMX exposure
  levels of c-Met: decreased
[5]; 100 nM tamoxifen
  c-Cbl activation: activates
[13]
  reduction in cell division: ~10%

## [Pb] [Pb, lead]
[7]
  cells more oxidized (intracellular redox state): approximately 20%
[1]
  PDGF-induced Erk1/2 phosphorylation after toxicant exposure: reduced levels of Erk1/2 phosphorylation
[2]
  phosphorylation of PDGFRα after toxicant exposure: reduced
[3]
  total levels of PDGFRα after toxicant exposure: reduced
[8]
  levels of EGFR after toxicant exposure: also reduced
[9]
  levels of TrkC after toxicant exposure: neither Pb or paraquat caused a reduction
[10]
  levels of c-Met after toxicant exposure: also reduced
[4]
  Fyn activation after toxicant exposure: activation of Fyn
[5]
  c-Cbl phosphorylation after toxicant exposure: increased phosphorylation of c-Cbl
[11]
  cell death at the concentrations used: did not cause cell death

## Aβ(1-42): amino acids 1-42 of amyloid beta protein
[1]; exposure to Aβ(1-42)
  Erk1/2 phosphorylation induced by NT-3: had no effect
  PDGF-mediated induction of Erk1/2 phosphorylation: inhibited
[3]; exposure to Aβ
  levels of PDGFRα: reduced
[5]; exposure to Aβ (5-20 μM)
  c-Cbl phosphorylation: phosphorylated
[11]; 5-10 μM Aβ(1-42), 48 hrs
  cell death: little cell death
[11]; O-2A/OPCs
  concentration inducing progenitor cell death: 20 µM
[14]
  Fyn phosphorylation: phosphorylated
